Experimental data: patent US10344064B2, “Engineered potent cytotoxic stapled BH3 peptides” (The Trustees of Princeton University, priority 2012, dated 2019)
Entries after “also recorded” stand apart in the source; their conditions may differ. Where two headings read alike, the source gives them in different places. Bridges are numbered along the chain shown (N, C = ends). Where no end group is shown, it is not given here. [ ]: non-standard residue; d: D form. S5 = C=CCCC[C@](C)(N)C(=O)O

Assays:
[1] = tested on: A1; assay: Apparent Kd by E. coli surface display and flow cytometry, A1; type: binding; details: for Kd: Table 3, apparent Kd, unstapled 14-mer displayed on E. coli (eCPX); for affinity improvement toward A1: relative to wild-type Bim 14-mer
Description: (§1) All binding assays were performed using MC1061 strain. Briefly, a 5 mL culture of a library sample or individual variant was grown to OD600˜0.6, and induced with arabinose (0.2%) at RT for 2.5 hours. Cells were pelleted (1 mL culture, 6000 rpm, 5 min) and resuspended in 1 mL PBS. A portion of the cell suspension (50 μL) was mixed with the desired concentration of pro-survival protein to a total volume of 500 μL. The mixture was allowed to rotate at room temperature for 1 hour for equilibrium binding. The cells were pelleted again (6000 rpm, 20 min), resuspended with 100 μL of 50 nM streptavidin-phycoerythrin (SAPE), and incubated on ice in the dark for 30 min. After a final centrifugation, the cell pellets were stored on ice and resuspended in 2 mL of PBS for flow cytometry measurements. A Partec CyFlow ML Flow Cytometer equipped with a 488 nm laser was used to analyze the cells. A FACSVantage SE cell sorter was used for cell sorting in single cell mode.
(§2) A two parameter model was used to extract apparent binding affinity (Kd) from flow cytometry binding experiments.

[2] = tested on: HeLa cells; type: cell-based, human
Description: (§3) HeLa, PC3, MCF7 and MDA231 cell lines were used to determine IC50 of each stapled peptide. All cells were cultured at 37° C. supplemented with 5% CO2. HeLa cells and PC3 cells were maintained in DMEM and RPMI 1640 media, respectively, supplemented with 10% FBS, 50 units/mL penicillin, and 50 μg/mL streptomycin. MCF7 cells were maintained in DME/F12 media with 2% FBS, 10 μg/ml insulin, and 50 μg/ml gentamicin. MDA-MB-231 cells were maintained in DME/F12 media supplemented with 10% FBS, 10 μg/ml insulin, and 50 μg/ml gentamicin. The cytotoxicity of stapled peptides was determined using an MTT (3-(4,5-Dimethylthiazol-2-yl)-2,5-diphenyltetrazolium bromide assay (Sigma). Cells were plated at a density of 1.5×10^4 cells per well in a 96-well plate. After 24 hours, the medium was replaced with serum-free medium containing stapled peptides. Serum was added after 4 hours, and cells were incubated for an additional 44 hours. After this incubation, 0.5 mg/ml of MTT was added to each well and incubated for 4 hours. The medium was aspirated and 200 μL of dimethyl sulfoxide (DMSO) was added to each well to solubilize the formazan crystals. The absorbance was measured at 570 nm with 690 nm as an internal reference using a GloMax-Multi Detection System (Promega). Experiments were performed three times independently with biological replicates. A four-parameter model was used to fit the experimental data and extract the IC50 value from killing assays, where log [ ] was the log value of the stapled peptide concentration. [formula] During fitting, “top” was always fixed at 100% viability, while “bottom,” log [IC50] and Hill slope were allowed to vary. In all cases, “bottom” came out to be 0. The R^2 values of all fits were above 0.9, while the majority was above 0.95.

[3] = tested on: MDA231 cells; type: cell-based, human
Description: as §3

[4] = tested on: PC3 cells; type: cell-based, human
Description: as §3

[5] = tested on: MCF7 cells; assay: MTT cytotoxicity assay of stapled peptides, MCF7; type: cell-based, human; details: for cytotoxicity toward MCF7 cells (in words): stapled peptides, at the concentrations tested
Description: as §3

[6] = target: T1, Bcl-xL (Homo sapiens, UniProt Q07817); assay: Apparent Kd by E. coli surface display and flow cytometry, Bcl-xL; type: binding; details: for increase in apparent affinity toward Bcl-xL: relative to wild-type Bim 14-mer; for binding to Bcl-xL (in words): compared with wild-type peptide
T1 construct: made in house; host or cells: E. coli BL21
T1 sequence (Q07817 whole entry): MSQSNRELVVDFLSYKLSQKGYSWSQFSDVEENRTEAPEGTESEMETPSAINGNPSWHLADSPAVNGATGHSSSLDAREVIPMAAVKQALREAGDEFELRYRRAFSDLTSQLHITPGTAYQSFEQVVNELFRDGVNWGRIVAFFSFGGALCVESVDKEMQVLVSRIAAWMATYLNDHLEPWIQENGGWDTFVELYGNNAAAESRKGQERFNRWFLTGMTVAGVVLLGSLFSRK
Description: as §1, §2

[7] = tested on: HeLa, PC3, MCF7 and MDA231 cell lines; assay: MTT cytotoxicity assay of stapled peptides, all four cancer cell lines; type: cell-based, human; details: for cytotoxicity against the four cancer cell lines (in words): stapled pseudo-wild-type peptide
Description: as §3

[8] = tested on: HeLa cells; assay: Peptide uptake by fluorescence microscopy; type: cell-based, human; details: 5 μM, imaged after 2.5 hours
Description: (§4) To study the uptake of fluorescein-labeled M2-4 stapled peptide (Fl-M2-4), HeLa cells were cultured in DMEM with 10% FBS and antibiotics as described above. The peptide was added to a final concentration of 5 μM in fresh DMEM without serum supplementation. Cellular uptake of FI-M2-4 was visualized using a Hamamatsu Orca CCD camera attached to a Nikon Eclipse Ti microscope after 2.5 hours of incubation. Cells were fixed using 4% paraformaldehyde and counterstained with Hoechst 33342. For the TUNEL assay, HeLa cells were plated on a fibronectin-treated coverslip and incubated with 5 μM unlabeled M2-4 peptide for 5 hours. The cells were then fixed using 4% paraformaldehyde and permeabilized with 0.25% Triton X-100 in PBS. The TUNEL assay (Click-it Alexa-Fluor 594, Invitrogen) was carried out according to the manufacturer's recommendations including counterstaining cell nuclei with Hoechst 33342. Images were acquired using a Hamamatsu Orca CCD camera attached to a Nikon Eclipse Ti microscope. All images were processed with ImageJ software.

[9] = tested on: HeLa cells; assay: TUNEL assay; type: cell-based, human; details: 5 μM, 5 hours
Description: as §4

[10] = target: T2, Bcl-2 (Homo sapiens, UniProt P10415); assay: Apparent Kd by E. coli surface display and flow cytometry, Bcl-2; type: binding; details: compared with wild-type peptide
T2 construct: made in house; host or cells: E. coli BL21
T2 sequence (P10415 whole entry): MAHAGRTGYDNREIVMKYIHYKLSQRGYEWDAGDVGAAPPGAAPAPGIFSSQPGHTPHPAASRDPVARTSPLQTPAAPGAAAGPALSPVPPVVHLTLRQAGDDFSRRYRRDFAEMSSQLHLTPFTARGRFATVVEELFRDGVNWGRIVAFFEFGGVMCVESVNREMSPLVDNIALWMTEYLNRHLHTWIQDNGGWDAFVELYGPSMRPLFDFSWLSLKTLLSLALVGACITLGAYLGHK
Description: as §1, §2

[11] = target: T3, Bcl-w (Homo sapiens, UniProt Q92843); assay: Apparent Kd by E. coli surface display and flow cytometry, Bcl-w; type: binding; details: compared with wild-type peptide
T3 construct: made in house; host or cells: E. coli BL21
T3 sequence (Q92843 1-193): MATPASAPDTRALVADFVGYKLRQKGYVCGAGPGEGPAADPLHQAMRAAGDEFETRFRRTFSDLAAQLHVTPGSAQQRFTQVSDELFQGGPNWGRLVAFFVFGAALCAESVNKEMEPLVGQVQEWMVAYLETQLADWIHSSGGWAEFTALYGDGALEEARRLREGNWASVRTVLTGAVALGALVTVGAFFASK
Description: as §1, §2

[12] = target: T4, Mcl-1 (Homo sapiens, UniProt Q07820); assay: Apparent Kd by E. coli surface display and flow cytometry, Mcl-1; type: binding
T4 construct: made in house; host or cells: E. coli BL21
T4 sequence (Q07820 whole entry): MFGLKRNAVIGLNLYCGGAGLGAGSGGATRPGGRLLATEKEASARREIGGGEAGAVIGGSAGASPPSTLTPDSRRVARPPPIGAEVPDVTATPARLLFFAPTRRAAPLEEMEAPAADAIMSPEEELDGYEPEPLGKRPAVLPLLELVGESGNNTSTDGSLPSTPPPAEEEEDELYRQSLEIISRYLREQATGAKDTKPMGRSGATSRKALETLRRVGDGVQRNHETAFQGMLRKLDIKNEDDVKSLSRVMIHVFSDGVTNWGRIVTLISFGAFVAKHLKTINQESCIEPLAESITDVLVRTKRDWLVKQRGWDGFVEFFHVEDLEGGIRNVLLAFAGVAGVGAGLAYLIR
Description: as §1, §2

[13] = Table 2, apparent Kd, unstapled 14-mer displayed on E. coli (eCPX), read-out: Kd vs. Mcl-1
[14] = Table 3, apparent Kd, unstapled 14-mer displayed on E. coli (eCPX), read-out: Kd (nM) Mcl-1

CC(C)C[C@H](NC(=O)[C@H](CCC(N)=O)NC(=O)[C@H](C)NC(=O)[C@H](CC(C)C)NC(=O)[C@@H](N)Cc1c[nH]c2ccccc12)C(=O)N[C@@H](CC(C)C)C(=O)N[C@@H](CCCNC(=N)N)C(=O)N[C@@]1(C)CCCC=CCCC[C@@](C)(C(=O)N[C@@H](Cc2ccccc2)C(=O)N[C@@H](CC(N)=O)C(N)=O)NC(=O)[C@H](CC(=O)O)NC(=O)CNC(=O)[C@H](Cc2ccc(O)cc2)NC1=O [X2-8, Trp-Leu-Ala-Gln-Leu-Leu-Arg-Arg-Tyr-Gly-Asp-Glu-Phe-Asn]
Kd [1]: 40.5 nM | IC50 [2]: 55 µM | IC50 [3]: 18.3 µM | IC50 [4]: 14.9 µM | cytotoxicity toward MCF7 cells (in words) [5]: no cytotoxicity

CC(C)C[C@H](NC(=O)[C@H](Cc1c[nH]c2ccccc12)NC(=O)[C@H](CCC(N)=O)NC(=O)[C@H](C)NC(=O)[C@@H](NC(=O)[C@@H](N)Cc1c[nH]c2ccccc12)C(C)C)C(=O)N[C@@H](CCCNC(=N)N)C(=O)N[C@@]1(C)CCCC=CCCC[C@@](C)(C(=O)N[C@@H](Cc2ccccc2)C(=O)N[C@@H](CC(N)=O)C(N)=O)NC(=O)[C@H](CC(=O)O)NC(=O)CNC(=O)[C@H](Cc2c[nH]c3ccccc23)NC1=O [X2-3, Trp-Val-Ala-Gln-Trp-Leu-Arg-Arg-Trp-Gly-Asp-Glu-Phe-Asn]
increase in apparent affinity toward Bcl-xL [6]: 25 fold | Kd [1]: 30.2 nM | IC50 [2]: 51.3 µM | IC50 [3]: 10.5 µM | IC50 [4]: 17.9 µM | cytotoxicity toward MCF7 cells (in words) [5]: no cytotoxicity

WIAQELRRIGDEFN [WT, reference compound]
Kd [1]: 26.9 nM

CC[C@H](C)[C@H](NC(=O)[C@@H](N)Cc1c[nH]c2ccccc12)C(=O)N[C@@H](C)C(=O)N[C@@H](CCC(N)=O)C(=O)N[C@@H](CCC(N)=O)C(=O)N[C@@H](CC(C)C)C(=O)N[C@@H](CCCNC(=N)N)C(=O)N[C@@]1(C)CCCC=CCCC[C@@](C)(C(=O)N[C@@H](Cc2ccccc2)C(=O)N[C@@H](CC(N)=O)C(N)=O)NC(=O)[C@H](CC(=O)O)NC(=O)CNC(=O)[C@H]([C@@H](C)CC)NC1=O (single isomer, unassigned) [E151Q]
increase in apparent affinity toward Bcl-xL [6]: 5 fold | Kd [1]: 29.6 nM | IC50 [2]: 150 µM | IC50 [3]: 20 µM | IC50 [4]: 9.5 µM | IC50 [5]: 35.7 µM

CC[C@H](C)[C@H](NC(=O)[C@@H](N)Cc1c[nH]c2ccccc12)C(=O)N[C@@H](C)C(=O)N[C@@H](CCC(N)=O)C(=O)N[C@@H](CCC(N)=O)C(=O)N[C@@H](CC(C)C)C(=O)N[C@@H](CCCNC(=N)N)C(=O)N[C@@]1(C)CCCC=CCCC[C@@](C)(C(=O)N[C@@H](Cc2ccccc2)C(=O)N[C@@H](CC(N)=O)C(N)=O)NC(=O)[C@H](CC(=O)O)NC(=O)CNC(=O)[C@H]([C@@H](C)CC)NC1=O (single isomer, unassigned) [stapled E151Q]
IC50 [7]: 10 to 150 µM | cytotoxicity against the four cancer cell lines (in words) [7]: only modest cytotoxicity; also recorded: measurable but modest cytotoxicity | cytotoxicity against the four cancer cell lines (in words) ([7]; listed as pseudo-wild-type Bim peptide): only modest cytotoxicity

stapled M2-4: stapled version of M2-4; positions 8 and 12 replaced by olefinic amino acids and crosslinked (WLAQLLR[S5]IGD[S5]IN-NH2; staple 8-12)
cellular uptake (in words) [8]: taken up | apoptosis / DNA fragmentation by TUNEL (in words) [9]: DNA fragmentation | apoptosis / DNA fragmentation by TUNEL (in words) ([9]; listed as M2-4 stapled peptide): causes apoptosis

CC[C@H](C)[C@@H]1NC(=O)[C@@](C)(NC(=O)[C@H](CCCNC(=N)N)NC(=O)[C@H](CC(C)C)NC(=O)[C@H](CC(C)C)NC(=O)[C@H](CCC(N)=O)NC(=O)[C@H](C)NC(=O)[C@@H](NC(=O)[C@@H](N)Cc2c[nH]c3ccccc23)C(C)C)CCCC=CCCC[C@@](C)(C(=O)N[C@H](C(=O)N[C@@H](CC(N)=O)C(N)=O)C(C)C)NC(=O)[C@H](CC(=O)O)NC(=O)CNC1=O [M2-2, Trp-Val-Ala-Gln-Leu-Leu-Arg-Arg-Ile-Gly-Asp-Glu-Val-Asn]
binding to Bcl-xL (in words) [6]: lost the ability to bind | binding to Bcl-2 (in words) [10]: lost the ability to bind | binding to Bcl-w (in words) [11]: lost the ability to bind | Kd [12, 13]: 5.8 nM | Kd [12, 14]: 5.8 nM | Kd ([12]; displayed unstapled 14-mer, read-out: apparent Kd against Mcl-1): 5.8 nM | increase in apparent affinity toward Mcl-1 ([12]; relative to wild-type Bim 14-mer): 6 fold | Kd [1]: 9.99 nM | affinity improvement toward A1 [1]: 3 fold | IC50 [2]: 6.1 µM | IC50 [3]: 3.7 µM | IC50 [4]: 4.7 µM | IC50 [5]: 5.7 µM | IC50 [7]: < 6.2 µM

CC[C@H](C)[C@@H]1NC(=O)[C@@](C)(NC(=O)[C@H](CCCNC(=N)N)NC(=O)[C@H](CC(C)C)NC(=O)[C@H](CC(C)C)NC(=O)[C@H](CCC(N)=O)NC(=O)[C@H](C)NC(=O)[C@H](CC(C)C)NC(=O)[C@@H](N)Cc2c[nH]c3ccccc23)CCCC=CCCC[C@@](C)(C(=O)N[C@H](C(=O)N[C@@H](CC(N)=O)C(N)=O)[C@@H](C)CC)NC(=O)[C@H](CC(=O)O)NC(=O)CNC1=O [M2-4, Trp-Leu-Ala-Gln-Leu-Leu-Arg-Arg-Ile-Gly-Asp-Glu-Ile-Asn]
binding to Bcl-xL (in words) [6]: maintaining wild-type affinity | binding to Bcl-2 (in words) [10]: maintaining wild-type affinity | binding to Bcl-w (in words) [11]: maintaining wild-type affinity | Kd [12, 13]: 9.85 nM | Kd [12, 14]: 9.85 nM | Kd [1]: 4.18 nM | affinity improvement toward A1 [1]: 6 fold | decrease in IC50 relative to the pseudo-wild-type peptide ([2]; HeLa cells, stapled peptides): ~150 fold | IC50 [7]: < 6.2 µM
